Assay results taken from US6130324A, “Amphipathic oligonucleotides and polynucleotides having potent antiviral activity” (University of Utah Research Foundation, priority 1999, dated 2000).
Where two headings read alike, the source gives them in different places. One block for each molecule: values may come before it.

Key:
HIV strain SK1 = assay: Inhibition of cytopathic effect of HIV strain SK1 in CEM-SS cells; format: cell-based, human immunodeficiency virus
Description: (§1) Assays for anti-HIV activity of poly(1-propargylinosineic) prepared according to the procedure of Examples 1-4 were conducted by Dr. Robert Buckheit, Jr. of the Southern Research Institute with strains of HIV-1 and HIV-2 in various cell lines and with cell free preparations of reverse transcriptase as previously described, Broom et al. (1995), J. Med. Chem. 38:3253-3257.

[1] = tested on: reverse transcriptase (RT); assay: Inhibition of reverse transcriptase in a cell free supernate; format: biochemical, human immunodeficiency virus; details: concentrations based on average molecular weight of 100,000
Description: as §1

HIV strain ROD = assay: Inhibition of cytopathic effect of HIV strain ROD in CEM-SS cells; format: cell-based, human immunodeficiency virus
Description: as §1

HIV strain RF = assay: Inhibition of cytopathic effect of HIV strain RF in CEM-SS cells; format: cell-based, human immunodeficiency virus
Description: as §1

HCMV strain AD-169 = assay: Anti-HCMV activity, AD-169 strain in MRC-5 cell line; format: cell-based, human cytomegalovirus; details: HCMV AD-169 in MRC-5 cell line; for EC50: Human betaherpesvirus 5, AD169, MRC5, read-out: ED50 (50% effective dose)
Description: (§2) Assays of anti-HCMV activity were conducted by Drs. R. Sidwell and J. Huffman at Utah State University with the AD-169 strain in the MRC-5 cell line as described in Huffman et al. (1994), Nucleosides and Nucleotides 33:607-613.

HIV strain IIIB = assay: Inhibition of cytopathic effect of HIV strain IIIB in CEM-SS cells; format: cell-based, human immunodeficiency virus; details: polynucleotide concentration based on average molecular weight of 100,000, read-out: EC50 against cytopathic effect, virus IIIB
Description: as §1

MRC-5 cell line = assay: Cytotoxicity in the anti-HCMV assay (MRC-5 cell line); format: cell-based; details: MRC-5 cell line
Description: as §2

[2] = as above; format: cell-based; details: human, mrc-5 cells
Description: as §2

[3] = polynucleotide concentration based on average molecular weight of 100,000 daltons

Molecule: poly(1-propargylinosinic acid)
EC50 (HIV strain SK1; polynucleotide concentration based on average molecular weight of 100,000, read-out: EC50 against cytopathic effect, virus SK1): 44.4 nM | EC50 [1]: 223 nM | EC50 (HIV strain ROD; polynucleotide concentration based on average molecular weight of 100,000, read-out: EC50 against cytopathic effect, virus ROD): 57.9 nM | EC50 (HIV strain RF; Table 2, RF strain, concentrations based on average molecular weight of 100,000, read-out: CEM-SS (RF), EC50): 131 nM | EC50 (HIV strain RF; polynucleotide concentration based on average molecular weight of 100,000, read-out: EC50 against cytopathic effect, virus RF): 131 nM | ED50 (50% effective dose) (HCMV strain AD-169): 1.9 µg/mL | ED50 (50% effective dose), molar (HCMV strain AD-169; [3]): 19 nM | EC50 (HIV strain IIIB): 263 nM | CD50 (50% cytotoxic dose) (MRC-5 cell line): 316 µg/mL | CD50 (50% cytotoxic dose), molar (MRC-5 cell line; concentration based on average molecular weight of 100,000 daltons): 3.16 µM

EC50 (HIV strain SK1; Human immunodeficiency virus 1, polynucleotide concentration based on average molecular weight of 100,000, read-out: EC50 against cytopathic effect, virus SK1): 25.4 nM | EC50 (HIV strain ROD; Human immunodeficiency virus 1, polynucleotide concentration based on average molecular weight of 100,000, read-out: EC50 against cytopathic effect, virus ROD): 62.1 nM | EC50 (HIV strain RF; Human immunodeficiency virus 1, polynucleotide concentration based on average molecular weight of 100,000, read-out: EC50 against cytopathic effect, virus RF): 39 nM | EC50 (HIV strain IIIB; Human immunodeficiency virus 1, IIIB): 69.3 nM
Molecule: Nc1ccn([C@H]2CC[C@@H](CO)O2)c(=O)n1 [ddC, reference compound]

Molecule: Nc1nc(O)c2ncn(COC(CO)CO)c2n1 [Ganciclovir, ganciclovir]
TI = CD50 / ED50 (HCMV strain AD-169): > 417 | EC50 (HCMV strain AD-169; [3]): 9400 nM | EC50 (HCMV strain AD-169): 2.4 µg/mL | CC50 [2]: > 1000 µg/mL
